Assay results reported in ChEMBL document CHEMBL1201862, “PubChem BioAssay data set” (2004).
Active and inactive are the calls of the source.

Key:
[1] = biological target: SWI/SNF-related matrix-associated actin-dependent regulator of chromatin subfamily A member 2 (Homo sapiens, UniProt P51531); experiment: Luminescence-based cell-based high throughput dose response assay to identify activators of the function of SWI/SNF related, matrix associated, actin dependent regulator of chromatin, subfamily a, member 2 (SMARCA2, BRM).; format: functional
[2] = Counterscreen for activators of the function of SWI/SNF related, matrix associated, actin dependent regulator of chromatin, subfamily a, member 2 (SMARCA2, BRM): Luminescence-based cell-based high throughput dose response assay to identify non-selective compounds using the VP16 reporter assay.; format: functional
[3] = biological target: T1, Aminopeptidase N (Plasmodium falciparum FcB1/Columbia, UniProt O96935); experiment: malaria alanyl aminopeptidase activity blockers – biochemical, fluorogenic H-Leu-NHMec substrate, 1536-well (AID 1445); design: species or system Plasmodium falciparum 3D7, 3D7
T1 sequence (O96935 whole entry): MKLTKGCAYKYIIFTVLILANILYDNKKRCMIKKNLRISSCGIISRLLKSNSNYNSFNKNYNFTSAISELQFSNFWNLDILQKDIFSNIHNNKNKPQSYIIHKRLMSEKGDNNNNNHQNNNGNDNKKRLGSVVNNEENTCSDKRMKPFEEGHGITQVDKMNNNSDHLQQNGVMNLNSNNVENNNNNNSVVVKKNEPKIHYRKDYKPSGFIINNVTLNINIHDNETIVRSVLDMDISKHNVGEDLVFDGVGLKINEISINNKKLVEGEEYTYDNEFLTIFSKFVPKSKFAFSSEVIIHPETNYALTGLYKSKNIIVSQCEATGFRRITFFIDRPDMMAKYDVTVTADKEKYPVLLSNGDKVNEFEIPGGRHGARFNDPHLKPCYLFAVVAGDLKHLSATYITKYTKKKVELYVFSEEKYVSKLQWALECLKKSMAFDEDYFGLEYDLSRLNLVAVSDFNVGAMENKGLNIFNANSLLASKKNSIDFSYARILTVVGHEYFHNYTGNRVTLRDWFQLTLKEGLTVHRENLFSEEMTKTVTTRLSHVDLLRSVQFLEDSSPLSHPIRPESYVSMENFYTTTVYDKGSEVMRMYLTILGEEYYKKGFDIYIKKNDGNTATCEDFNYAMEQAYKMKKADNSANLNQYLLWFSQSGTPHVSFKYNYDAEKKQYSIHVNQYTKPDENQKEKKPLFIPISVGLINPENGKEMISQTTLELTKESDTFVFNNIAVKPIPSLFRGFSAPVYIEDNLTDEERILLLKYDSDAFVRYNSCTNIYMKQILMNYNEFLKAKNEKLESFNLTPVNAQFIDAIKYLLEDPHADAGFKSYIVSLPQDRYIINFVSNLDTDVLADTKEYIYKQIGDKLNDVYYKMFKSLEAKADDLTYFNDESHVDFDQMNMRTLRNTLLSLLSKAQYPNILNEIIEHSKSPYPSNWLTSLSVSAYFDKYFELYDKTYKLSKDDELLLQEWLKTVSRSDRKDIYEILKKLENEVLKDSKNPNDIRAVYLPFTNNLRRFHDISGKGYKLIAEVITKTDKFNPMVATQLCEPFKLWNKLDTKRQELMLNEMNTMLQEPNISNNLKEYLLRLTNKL

[4] = biological target: Genome polyprotein (dengue virus type 2, UniProt P29990); experiment: flavivirus cap methylation enzyme inhibition – biochemical, confirmation dose response, primary screen (AID 588689); format: functional
[5] = biological target: T2, Corticotropin-releasing factor receptor 2/Corticotropin-releasing factor-binding protein (Homo sapiens, UniProt P24387+Q13324); experiment: Dose Response confirmation of uHTS hits for small molecule antagonists of the CRF-binding protein and CRF-R2 receptor complex.; format: functional; settings: read-out: IC50_Mean
T2 sequence (Q13324 whole entry): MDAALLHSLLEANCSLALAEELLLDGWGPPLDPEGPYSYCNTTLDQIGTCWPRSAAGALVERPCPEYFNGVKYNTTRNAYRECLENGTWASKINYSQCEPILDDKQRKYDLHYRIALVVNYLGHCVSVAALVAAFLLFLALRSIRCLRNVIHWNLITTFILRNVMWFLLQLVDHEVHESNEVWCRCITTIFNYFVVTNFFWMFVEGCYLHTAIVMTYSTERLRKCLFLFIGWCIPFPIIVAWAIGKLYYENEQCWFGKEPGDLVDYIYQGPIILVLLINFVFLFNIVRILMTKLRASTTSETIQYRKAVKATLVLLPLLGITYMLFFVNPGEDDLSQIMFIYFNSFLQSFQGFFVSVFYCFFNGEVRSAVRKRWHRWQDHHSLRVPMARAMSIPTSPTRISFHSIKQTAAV
T2 sequence (P24387 whole entry): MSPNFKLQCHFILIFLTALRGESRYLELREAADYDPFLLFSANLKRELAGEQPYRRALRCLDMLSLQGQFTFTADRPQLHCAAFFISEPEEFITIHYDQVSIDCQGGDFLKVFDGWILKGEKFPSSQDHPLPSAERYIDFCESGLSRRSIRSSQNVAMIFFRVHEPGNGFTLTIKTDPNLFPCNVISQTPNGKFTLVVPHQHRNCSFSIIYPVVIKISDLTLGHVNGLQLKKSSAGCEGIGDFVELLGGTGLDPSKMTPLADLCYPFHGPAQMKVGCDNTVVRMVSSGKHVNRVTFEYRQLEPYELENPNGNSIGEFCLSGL

[6] = biological target: T2, Corticotropin-releasing factor receptor 2/Corticotropin-releasing factor-binding protein; experiment: activators of CRF receptor 2 with binding protein – uHTS hits, confirmation (AID 602473); format: functional; settings: read-out: EC50_Mean
[7] = blockers of CRF-binding protein–CRF-R2 complex – cell-based, uHTS hits, 384-well, dose response (AID 651639); format: functional, Homo sapiens; settings: read-out: IC50_Mean
[8] = biological target: T3, Long-chain-fatty-acid--AMP ligase FadD28 (Mycobacterium tuberculosis, UniProt P9WQ59); experiment: Fluorescence polarization aasay to screen for inhibitors that compete for the binding of FadD28 to a bisubstrate Measured in Biochemical System Using Plate Reader - 2147-01_Inhibitor_Dose_CherryPick_Activity.; format: functional, Mycobacterium tuberculosis H37Rv
T3 sequence (P9WQ59 whole entry): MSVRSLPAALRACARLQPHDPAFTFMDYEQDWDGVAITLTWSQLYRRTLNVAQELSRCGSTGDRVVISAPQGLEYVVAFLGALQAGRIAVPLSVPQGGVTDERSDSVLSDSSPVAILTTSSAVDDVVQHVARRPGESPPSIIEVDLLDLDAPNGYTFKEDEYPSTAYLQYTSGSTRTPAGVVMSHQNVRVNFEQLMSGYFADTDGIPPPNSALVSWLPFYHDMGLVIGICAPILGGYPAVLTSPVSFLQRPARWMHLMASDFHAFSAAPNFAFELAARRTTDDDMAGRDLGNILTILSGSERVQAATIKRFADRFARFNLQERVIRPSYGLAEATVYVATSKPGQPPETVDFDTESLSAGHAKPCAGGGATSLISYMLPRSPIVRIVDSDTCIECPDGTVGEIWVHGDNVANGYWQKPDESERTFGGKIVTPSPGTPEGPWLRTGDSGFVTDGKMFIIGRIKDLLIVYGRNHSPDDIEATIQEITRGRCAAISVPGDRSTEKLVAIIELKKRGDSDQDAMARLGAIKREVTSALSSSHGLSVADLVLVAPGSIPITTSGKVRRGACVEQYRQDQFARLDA

[9] = Counterscreen for […] of the human trace amine associated receptor 1 (TAAR1): Fluorescence-based cell-based high throughput dose response assay to identify nonselective Ga16 agonists.; format: functional
[10] = biological target: T4, Trace amine-associated receptor 1 (Homo sapiens, UniProt Q96RJ0); experiment: Fluorescence-based cell-based high throughput dose response assay to identify antagonists of the human trace amine associated receptor 1 (TAAR1).; format: functional
T4 sequence (Q96RJ0 whole entry): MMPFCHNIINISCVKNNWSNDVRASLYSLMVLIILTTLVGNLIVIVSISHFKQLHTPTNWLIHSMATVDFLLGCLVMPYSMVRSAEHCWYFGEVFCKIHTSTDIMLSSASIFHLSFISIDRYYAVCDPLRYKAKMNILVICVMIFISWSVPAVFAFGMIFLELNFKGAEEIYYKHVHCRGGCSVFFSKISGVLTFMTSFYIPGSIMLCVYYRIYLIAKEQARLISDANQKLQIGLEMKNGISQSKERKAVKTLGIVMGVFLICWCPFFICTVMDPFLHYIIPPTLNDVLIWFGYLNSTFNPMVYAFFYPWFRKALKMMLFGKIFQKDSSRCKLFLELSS

[11] = Counterscreen for antagonists of the human trace amine associated receptor 1 (hTAAR1): Fluorescence-based cell-based high throughput dose response assay to identify nonselective Ga16 antagonists.; format: functional
[12] = biological target: T4, Trace amine-associated receptor 1; experiment: Counterscreen for antagonists of the human trace amine associated receptor 1 (hTAAR1): Fluorescence-based cell-based high throughput dose response assay to identify TAAR1 Agonists.; format: functional
[13] = cells; format: functional, cell-based
[14] = biological target: T4, Trace amine-associated receptor 1; experiment: Fluorescence-based cell-based high throughput dose response assay to identify agonists of the human trace amine associated receptor 1 (TAAR1).; format: functional
[15] = biological target: T4, Trace amine-associated receptor 1; experiment: Counterscreen for agonists of the human trace amine associated receptor 1 (hTAAR1): Fluorescence-based cell-based high throughput dose response assay to identify hTAAR1 agonist that also desensitize TAAR1 receptor response.; format: functional
[16] = cells; format: functional, cell-based; remark: listed apart in the source
[17] = biological target: Mu-type opioid receptor (Homo sapiens, UniProt P35372); format: functional, cell-based;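 further: U2OS cells with beta-arrestin recruitment to OPRM1 by beta-gal complementation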
[18] = biological target: 5-hydroxytryptamine receptor 2A (Mus musculus, UniProt P35363); format: functional, cell-based;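 further: CHO-K1 cells with tagged receptor and beta-arrestin; agonist potency measured as compound-induced activation of the receptor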
Sequence of 5-hydroxytryptamine receptor 2A (P35363 whole entry): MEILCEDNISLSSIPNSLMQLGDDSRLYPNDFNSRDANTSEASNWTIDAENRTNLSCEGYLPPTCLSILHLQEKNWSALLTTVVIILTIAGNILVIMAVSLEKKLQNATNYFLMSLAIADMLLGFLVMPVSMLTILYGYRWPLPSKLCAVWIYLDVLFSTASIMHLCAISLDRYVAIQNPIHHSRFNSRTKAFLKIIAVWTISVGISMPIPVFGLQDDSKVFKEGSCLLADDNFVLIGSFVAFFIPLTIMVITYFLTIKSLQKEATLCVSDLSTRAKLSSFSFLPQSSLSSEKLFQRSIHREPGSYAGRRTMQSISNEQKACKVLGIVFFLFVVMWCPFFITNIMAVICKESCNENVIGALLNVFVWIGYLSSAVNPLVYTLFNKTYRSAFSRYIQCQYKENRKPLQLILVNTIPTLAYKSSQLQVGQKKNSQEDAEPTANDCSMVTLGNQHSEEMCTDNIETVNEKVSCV

Sequence of Mu-type opioid receptor (P35372 whole entry): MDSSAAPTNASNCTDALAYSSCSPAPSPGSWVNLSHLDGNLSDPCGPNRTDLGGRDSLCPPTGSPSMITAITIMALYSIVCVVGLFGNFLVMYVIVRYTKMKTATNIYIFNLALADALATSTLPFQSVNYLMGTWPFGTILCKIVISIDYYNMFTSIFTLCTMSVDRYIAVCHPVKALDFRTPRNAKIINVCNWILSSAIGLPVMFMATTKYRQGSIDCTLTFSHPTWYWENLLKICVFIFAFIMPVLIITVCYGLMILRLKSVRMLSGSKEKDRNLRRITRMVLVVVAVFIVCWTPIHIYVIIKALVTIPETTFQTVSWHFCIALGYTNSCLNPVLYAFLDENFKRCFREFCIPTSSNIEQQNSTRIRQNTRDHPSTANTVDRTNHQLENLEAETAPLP
Sequence of SWI/SNF-related matrix-associated actin-dependent regulator of chromatin subfamily A member 2 (P51531 whole entry): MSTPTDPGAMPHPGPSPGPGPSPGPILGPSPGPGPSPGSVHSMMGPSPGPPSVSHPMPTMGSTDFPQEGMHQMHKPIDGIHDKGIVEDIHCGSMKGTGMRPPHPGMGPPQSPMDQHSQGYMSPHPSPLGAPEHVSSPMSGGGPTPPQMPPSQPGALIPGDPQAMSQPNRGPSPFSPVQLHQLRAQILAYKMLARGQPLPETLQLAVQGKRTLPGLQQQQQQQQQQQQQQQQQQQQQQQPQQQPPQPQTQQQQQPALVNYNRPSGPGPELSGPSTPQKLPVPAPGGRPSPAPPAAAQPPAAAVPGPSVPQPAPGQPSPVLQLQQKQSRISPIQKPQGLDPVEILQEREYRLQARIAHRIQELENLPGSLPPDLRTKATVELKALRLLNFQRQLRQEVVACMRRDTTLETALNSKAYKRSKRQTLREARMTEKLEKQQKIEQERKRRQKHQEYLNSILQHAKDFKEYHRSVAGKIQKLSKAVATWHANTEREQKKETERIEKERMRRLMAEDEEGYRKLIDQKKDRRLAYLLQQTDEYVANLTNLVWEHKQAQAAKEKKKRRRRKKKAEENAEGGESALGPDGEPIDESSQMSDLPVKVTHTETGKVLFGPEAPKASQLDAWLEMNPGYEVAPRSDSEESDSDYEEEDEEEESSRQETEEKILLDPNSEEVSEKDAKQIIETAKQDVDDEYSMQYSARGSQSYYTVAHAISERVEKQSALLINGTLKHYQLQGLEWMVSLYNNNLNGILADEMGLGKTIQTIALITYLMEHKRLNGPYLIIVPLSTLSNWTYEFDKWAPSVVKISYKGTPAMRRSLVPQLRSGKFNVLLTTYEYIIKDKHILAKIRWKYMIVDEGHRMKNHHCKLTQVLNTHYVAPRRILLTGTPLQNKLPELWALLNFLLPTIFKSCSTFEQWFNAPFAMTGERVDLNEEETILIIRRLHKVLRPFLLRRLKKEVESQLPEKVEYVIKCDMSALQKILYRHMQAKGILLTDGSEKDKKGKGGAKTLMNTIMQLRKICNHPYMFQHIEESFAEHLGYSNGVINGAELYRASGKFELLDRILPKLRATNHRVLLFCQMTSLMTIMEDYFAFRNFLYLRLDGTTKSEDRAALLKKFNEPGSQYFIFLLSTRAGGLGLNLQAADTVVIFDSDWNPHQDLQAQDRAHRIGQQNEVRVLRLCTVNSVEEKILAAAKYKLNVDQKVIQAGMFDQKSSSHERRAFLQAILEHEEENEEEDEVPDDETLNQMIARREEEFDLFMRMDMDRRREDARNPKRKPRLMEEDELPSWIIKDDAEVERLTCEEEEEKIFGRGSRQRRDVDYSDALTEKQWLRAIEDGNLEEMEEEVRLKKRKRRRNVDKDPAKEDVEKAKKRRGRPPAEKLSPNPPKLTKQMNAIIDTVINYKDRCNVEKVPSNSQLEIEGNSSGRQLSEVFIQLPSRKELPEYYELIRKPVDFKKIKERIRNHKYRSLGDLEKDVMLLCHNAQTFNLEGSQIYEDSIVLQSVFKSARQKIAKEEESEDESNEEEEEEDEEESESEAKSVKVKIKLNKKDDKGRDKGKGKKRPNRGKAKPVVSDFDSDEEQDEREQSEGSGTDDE
Sequence of Genome polyprotein (P29990 2492-3391 limits assumed): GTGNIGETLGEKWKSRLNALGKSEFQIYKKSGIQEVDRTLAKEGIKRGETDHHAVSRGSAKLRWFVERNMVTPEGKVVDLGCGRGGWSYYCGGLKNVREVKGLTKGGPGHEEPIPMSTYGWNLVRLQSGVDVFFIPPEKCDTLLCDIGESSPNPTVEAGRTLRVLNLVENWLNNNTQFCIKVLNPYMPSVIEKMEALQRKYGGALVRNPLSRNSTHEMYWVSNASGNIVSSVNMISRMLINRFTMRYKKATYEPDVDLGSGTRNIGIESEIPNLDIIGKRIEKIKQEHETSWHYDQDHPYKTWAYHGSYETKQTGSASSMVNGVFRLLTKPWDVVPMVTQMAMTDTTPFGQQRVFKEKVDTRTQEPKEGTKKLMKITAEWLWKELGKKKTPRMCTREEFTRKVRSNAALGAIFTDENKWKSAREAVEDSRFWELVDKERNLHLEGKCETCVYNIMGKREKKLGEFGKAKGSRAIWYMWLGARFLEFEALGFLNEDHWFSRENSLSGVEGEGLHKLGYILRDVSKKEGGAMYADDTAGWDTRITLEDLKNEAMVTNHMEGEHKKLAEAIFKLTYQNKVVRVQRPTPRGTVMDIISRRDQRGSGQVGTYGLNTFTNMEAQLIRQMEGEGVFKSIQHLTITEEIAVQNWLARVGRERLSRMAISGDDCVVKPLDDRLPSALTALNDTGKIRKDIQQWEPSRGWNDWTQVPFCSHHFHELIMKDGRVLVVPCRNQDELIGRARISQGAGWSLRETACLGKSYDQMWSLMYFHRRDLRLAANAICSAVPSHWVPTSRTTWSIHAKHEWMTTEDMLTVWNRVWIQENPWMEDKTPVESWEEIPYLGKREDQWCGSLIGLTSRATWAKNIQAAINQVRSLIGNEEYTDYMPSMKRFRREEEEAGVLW

O=C(COC(=O)c1nc(Cl)c(Cl)c(Cl)c1Cl)NCc1ccccc1
EC50 [1]: > 91.1 µM (inactive) | EC50 [2]: > 91.1 µM (inactive)

C=CCOc1ccc(/C=C2\SC(=S)N(C(C(=O)O)c3ccccc3)C2=O)cc1 (stereo unspecified)
IC50 [3]: 33.8 µM (active) | IC50 [4]: 40.2 µM (active) | IC50 [5]: 4.06 µM (active) | EC50 [6]: 33.2 µM (active) | IC50 [7]: 14.7 µM (active) | AC50 [8]: 4.48 µM (active)

O=C1NC(=S)S/C1=C\c1cccc([N+](=O)[O-])c1
IC50 [5]: 16.7 µM (active) | EC50 [6]: 10.8 µM (active) | IC50 [7]: > 20 µM (inactive)

COc1ccc(-c2c(C#Cc3ccsc3)c3cc(-c4ccc(C(N)=O)cc4)ccc3n2C)cc1
EC50 [9]: > 29.9 µM (inactive) | IC50 [10]: 0.233 µM (active) | IC50 [11]: > 29.9 µM (inactive) | EC50 [12]: > 29.9 µM (inactive)

CCOC(=O)[C@]12CCC=C1N(Cc1ccc3c(c1)OCO3)C(=O)[C@H](CC(=O)NCCc1ccccc1OC)C2
IC50 [13]: > 29.9 µM (inactive) | EC50 [14]: 7.51 µM (active) | IC50 [15]: 6.46 µM (active) | EC50 [16]: > 29.9 µM (inactive)

COc1cccc(-c2nc(CN3CCN(C(=O)c4ccco4)CC3)c(C)o2)c1OC
EC50 [17]: 92.5 µM (inactive) | EC50 [18]: 20 µM (inactive)
